Results on two compounds are retold here after patent US8119681B2, “2-[1-phenyl-5-hydroxy or methoxy-4alpha-methyl-hexahydrocyclopenta [ƒ]indazole-5-YL]ethyl phenyl derivatives as glucocorticoid receptor ligands” (Merck Sharp & Dohme Corp., priority 2006, dated 2012).

What all share (format): cell-based
Assay [1] has as its target T1, human GR (Homo sapiens, UniProt P04150).
T1 sequence (P04150 1-777): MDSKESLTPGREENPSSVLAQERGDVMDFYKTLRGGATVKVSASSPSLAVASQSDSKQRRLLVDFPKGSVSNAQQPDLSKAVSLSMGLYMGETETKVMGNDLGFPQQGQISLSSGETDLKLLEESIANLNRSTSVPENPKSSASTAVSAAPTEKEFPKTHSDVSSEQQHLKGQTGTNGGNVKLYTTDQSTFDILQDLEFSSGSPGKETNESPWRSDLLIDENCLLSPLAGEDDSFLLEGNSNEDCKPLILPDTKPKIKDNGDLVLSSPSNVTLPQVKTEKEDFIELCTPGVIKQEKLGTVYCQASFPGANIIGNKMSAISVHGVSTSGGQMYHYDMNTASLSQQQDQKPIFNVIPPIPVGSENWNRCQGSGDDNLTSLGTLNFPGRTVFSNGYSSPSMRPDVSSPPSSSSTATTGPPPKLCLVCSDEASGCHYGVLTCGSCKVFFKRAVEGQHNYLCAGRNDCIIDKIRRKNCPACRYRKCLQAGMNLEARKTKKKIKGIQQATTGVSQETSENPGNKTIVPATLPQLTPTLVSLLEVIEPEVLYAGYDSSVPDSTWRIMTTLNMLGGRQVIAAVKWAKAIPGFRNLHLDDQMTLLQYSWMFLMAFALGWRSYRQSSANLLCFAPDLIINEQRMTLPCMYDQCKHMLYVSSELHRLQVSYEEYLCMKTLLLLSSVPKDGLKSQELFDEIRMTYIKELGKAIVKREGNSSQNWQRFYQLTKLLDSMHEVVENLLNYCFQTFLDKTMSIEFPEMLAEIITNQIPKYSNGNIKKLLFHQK
Put plainly: Trans-Activation Modulation of Glucocorticoid Receptor (GRAMMER), MMTV-LUC reporter gene. Also on record: endogenous in cells. As to conditions: for EC50: Table 1, A549 cells, IP = inflection point, read-out: Transactivation A549 Cells GRAMMER IP.

Assay [2] addresses T1, human GR. The assay is described as above. Also on record: endogenous in cells. As to conditions: Table 1, Emax relative to 300 nM dexamethasone.
The target in assay [3] is T1, human GR. Put plainly: Transrepression Assay (GITAR), TNFα-β-lactamase reporter gene in U937 cells. Conditions: for EC50: IP = inflection point, read-out: Transrepression U937 Cells GITAR IP; for GITAR > GRAMM % SEP: separation of GITAR Emax over GRAMMER Emax; for Emax: U-937. Also on record: U937 cells contain an endogenous glucocorticoid receptor (GR); endogenous in cells; host or cells: U937 cells stably transfected with the TNF-α promoter/β-lactamase reporter only. Put shortly: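 Reporter readout used CCF2-AM loading for 70–90 min at room temperature after overnight (~18 h, 37 °C) PMA (5 ng/ml final) and LPS (100 ng/ml final) stimulation of compound-treated (30–45 min) TNFα-β-lactamase U937 cells expressing native GR. Activity was normalised to 100 nM dexamethasone repression.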

Take `C[C@]12Cc3cnn(-c4ccc(F)cc4)c3C=C1CC[C@@]2(O)/C=C/c1ccccc1S(N)(=O)=O` [Example 160, 2-{(E)-2-[(4αS,5R)-1-(4-fluorophenyl)-5-hydroxy-4α-methyl-1,4,4α,5,6,7-hexahydrocyclopenta[f]indazol-5-yl]vinyl}benzenesulfonamide]: the EC50 stood at 118 nM on human GR [1] and 274 nM on human GR [3] (Table 1, U937 cells). Also, on human GR [2], the “Transactivation A549 Cells GRAMMER Emax (%)” value is on record as 30%. The “Transrepression U937 Cells GITAR Emax (%)” value at human GR [3] (Table 1, U937 cells, activity repressed by 100 nM dexamethasone = 100%) is reported as 72%. Moreover, on human GR [3] (Table 1), the “GITAR > GRAMM % SEP” value came to 42%.
As to `CC(C)C(O)(C(N)=O)c1ccccc1CC[C@]1(O)CCC2=Cc3c(cnn3-c3ccc(F)cc3)C[C@@]21C` (stereo partly drawn) [Example 201, 2-(2-{2-[(4αS,5R)-1-(4-fluorophenyl)-5-hydroxy-4α-methyl-1,4,4α,5,6,7-hexahydrocyclopenta[f]indazol-5-yl]ethyl}phenyl)-2-hydroxy-3-methylbutanamide], the Emax on human GR [1] (A549, read-out: Transactivation A549 Cells GRAMMER Emax (%)) is 40%; on human GR [3] (100 nM dexamethasone = 100% activity, read-out: maximal activity in the transrepression assay) it was 5 to 100%; on human GR [3] (Table 1, U937 cells, activity repressed by 100 nM dexamethasone = 100%, read-out: Transrepression U937 Cells GITAR Emax (%)), 78%. Also, the EC50 came to 47 nM at human GR [1] and 40 nM on human GR [3] (Table 1, U937 cells). Further, the “GITAR > GRAMM % SEP” value at human GR [3] (Table 1) is 38%.
